Data on 22 compounds can be found in patent US12606552B2, “Bifunctional compound, preparation method therefor, and use thereof” (SUZHOU KINTOR PHARMACEUTICALS, INC., priority 2020, dated 2026).

The target of this assay is T1, AR (Homo sapiens, UniProt P10275, T878A).
T1 sequence (P10275 1-920 T878A): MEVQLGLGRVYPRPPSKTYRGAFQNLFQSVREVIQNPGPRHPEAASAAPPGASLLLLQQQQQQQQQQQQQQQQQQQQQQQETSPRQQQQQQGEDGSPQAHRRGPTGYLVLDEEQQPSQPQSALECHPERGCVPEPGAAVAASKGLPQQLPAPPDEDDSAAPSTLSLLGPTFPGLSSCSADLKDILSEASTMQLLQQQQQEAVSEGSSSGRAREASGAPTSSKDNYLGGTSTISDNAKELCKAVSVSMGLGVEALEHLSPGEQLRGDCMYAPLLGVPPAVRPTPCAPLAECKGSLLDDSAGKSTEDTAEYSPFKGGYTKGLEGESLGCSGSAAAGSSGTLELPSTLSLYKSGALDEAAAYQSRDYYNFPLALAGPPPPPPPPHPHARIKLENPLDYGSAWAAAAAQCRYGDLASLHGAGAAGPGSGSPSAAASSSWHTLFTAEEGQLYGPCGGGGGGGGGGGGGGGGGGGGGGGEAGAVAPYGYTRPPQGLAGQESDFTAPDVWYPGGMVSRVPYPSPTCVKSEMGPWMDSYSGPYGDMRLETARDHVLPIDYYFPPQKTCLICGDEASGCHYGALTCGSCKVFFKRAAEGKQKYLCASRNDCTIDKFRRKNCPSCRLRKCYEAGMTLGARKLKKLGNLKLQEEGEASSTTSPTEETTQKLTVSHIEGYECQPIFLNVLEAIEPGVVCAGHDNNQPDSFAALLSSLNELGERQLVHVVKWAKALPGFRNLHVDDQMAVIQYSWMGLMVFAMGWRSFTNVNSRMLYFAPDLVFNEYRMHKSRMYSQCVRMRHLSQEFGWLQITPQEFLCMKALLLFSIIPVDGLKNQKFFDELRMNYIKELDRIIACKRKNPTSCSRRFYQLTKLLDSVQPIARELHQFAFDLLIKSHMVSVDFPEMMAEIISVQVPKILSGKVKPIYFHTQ
As to the kind of experiment: Effects of compounds on AR expression in LNCaP cells (ELISA, DC50). It is filed as cell-based. Also noted: Measurement of the Effects of Drugs on the Expression of AR in Cells by ELISA Method; endogenous in cells; host or cells: LNCaP. As to conditions: 24 hours of drug treatment, AR by ELISA. The procedure: Activity Assay Example 1: Effects of Compounds on AR Expression in LNCaP Cells
1. Cell Line and Cell Culture
Human prostate cancer cells LNCaP (Shanghai Chinese Academy of Sciences Cell Bank). LNCaP was cultured in 1640 medium containing 10% fetal bovine serum. The cells grow in clusters, with weak adhesion to the bottom of the culture flask, slow proliferation, with a multiplication time of 72 h. The cells are closely adhered to each other and need to be digested with 0.05% trypsin containing 0.025% EDTA. The cells were passaged every 3 days. The cells were cultured at 37° C. and 5% CO2 in a humidified incubator
2. Cell plating: The supernatant was discarded, and the Lncap cells in the logarithmic growth phase were taken, washed with PBS once, and added with appropriate 0.05% trypsin digestion solution to be fully digested into single cell suspension, and centrifuged, resuspended and counted to make the number of cells about 15,000 per well, then inoculated in a 96-well plate, placed at 37° C., 5% CO2 and cultured overnight for 24 h.
3. Preparation and Addition of Compound Solutions
About 2 mg of each compound was weighed and dissolved in DMSO to make the stock solution with a concentration of 10 mmol/L. Dilution process (final concentration dilution: 2, 0.667, 0.222, 0.074, 0.0245, 0.008, 0.003, 0.001, 0.0003, 0.0001 μmol/L): 10 centrifuge tubes with a volume of 1.5 mL were taken and numbered 1, 2, 3, 4, 5, 6, 7, 8, 9, and 10, 80 μL DMSO was added to tube No. 1, and 60 μL DMSO was added to tubes No. 2 to No. 10, 20 μL of the stock solution was pipetted to tube No. 1 and mixed well; 30 μL was pipetted from tube No. 1 into tube No. 2 and mixed well. 30 μL was pipetted from tube No. 2 into tube No. 3 and mixed well, and so forth, to obtain samples No. 4-10, and to obtain working solutions of compounds of different concentrations respectively. 2 μL was pipetted from the above-mentioned tubes No. 1-10 into each corresponding sterile deep-well plates, added with 198 μL of culture medium, and mixed well. 11 ul was added to each well of the 96-well cell plate cultured overnight to obtain the corresponding desired concentrations (2, 0.667, 0.222, 0.074, 0.0245, 0.008, 0.003, 0.001, 0.0003, 0.0001 μmol/L).
4. Measurement of the Effects of Drugs on the Expression of AR in Cells by ELISA Method
After 24 hours of drug treatment, the supernatant was removed, and 200 μL of PBS was added to wash cells, and then the supernatant was removed, and 100 μL of cell lysate was added to lyse cells on ice for 20 min, then the cell lysate was centrifuged at 4000 rpm for 20 min at 4° C. and the supernatant was taken for later use. The measurement steps of the supernatant were according to the ELISA kit instructions:
4.1 The slats required for the test were taken out from the sealed bag that has been equilibrated to room temperature. Please put the unused slats and desiccant back into the aluminum foil bag and compress the self-sealing strip, seal the bag, and store at 4° C.
4.2 Standards and sample diluents were added to blank wells, and different concentrations of standards (10 ul/well) and sample diluents (90 ul/well) were added to the remaining corresponding wells, and the reaction wells were sealed with sealing tape, and refrigerated at 4° C. overnight.
4.3 Primary antibody was diluted with dilution buffer to the corresponding concentration and added to each well in 100 ul/well. The reaction wells were sealed with sealing tape and incubated at 37° C. for 60 min.
4.4 Secondary antibody was diluted with dilution buffer to the corresponding concentration and added to each well in 100 ul/well. The reaction wells were sealed with sealing tape and incubated at 37° C. for 30 min.
4.5 The reaction wells were added with 100 ul/well of substrate (TMB) and incubated at room temperature for 30 min.
4.6 The reaction wells were added with 100 ul/well of stop solution, mixed well and then the OD450 value was measured with a microplate reader. […]
(In general: ELISA stands for enzyme-linked immunosorbent assay.)
Regarding `Cc1ncsc1-c1ccc(CNC(=O)[C@@H]2C[C@@H](O)CN2C(=O)[C@@H](NC(=O)COCCCOCCCCOc2ccc(N3C(=S)N(c4ccc(C#N)c(C(F)(F)F)c4F)C(=O)C3(C)C)cn2)C(C)(C)C)cc1` [Compound A248], the DC50 turned out to be 48.8 nM.
With `Cc1ncsc1-c1ccc(CNC(=O)[C@@H]2C[C@@H](O)CN2C(=O)[C@@H](NC(=O)C2CCN(C3CCN(C(=O)c4ccc(-c5ccc(N6C(=S)N(c7ccc(C#N)c(C(F)(F)F)c7F)C(=O)C6(C)C)cn5)cc4)CC3)CC2)C(C)(C)C)cc1` [Compound A61] the figure was 268 nM.
With `Cc1ncsc1-c1ccc(CNC(=O)[C@@H]2C[C@@H](O)CN2C(=O)[C@@H](NC(=O)c2ccc(CC(=O)Nc3ccc(-c4ccc(N5C(=S)N(c6ccc(C#N)c(C(F)(F)F)c6F)C(=O)C5(C)C)cn4)cc3)cc2)C(C)(C)C)cc1` [Compound A244] the figure was 173 nM.
`CC1(C)C(=O)N(c2ccc(C#N)c(C(F)(F)F)c2F)C(=S)N1c1cnc(-c2cc(F)c(OC3CCN(C(=O)COc4ccc5c(c4)C(=O)N(C4CCC(=O)NC4=O)C5=O)CC3)c(F)c2)c(F)c1` (stereo not shown) [Compound A189]: the DC50 came to 329 nM.
The result for `CC1(C)C(=O)N(c2ccc(C#N)c(C(F)(F)F)c2F)C(=S)N1c1ccc(-c2ccc(OC3CCN(C(=O)COc4cccc5c4C(=O)N(C4CCC(=O)NC4=O)C5=O)C3)cc2)nc1` (stereo not shown) [Compound A44] reads over 2000 nM; that for `Cc1ncsc1-c1ccc(CNC(=O)[C@@H]2C[C@@H](O)CN2C(=O)[C@@H](NC(=O)COCC(F)C(F)COc2ccc(-c3ncc(N4C(=S)N(c5ccc(C#N)c(C(F)(F)F)c5F)C(=O)C4(C)C)cc3F)c(C(F)(F)F)c2)C(C)(C)C)cc1` (stereo partly shown) [Compound A154], 37.6 nM.
With `Cc1ncsc1-c1ccc(CNC(=O)[C@@H]2C[C@@H](O)CN2C(=O)[C@@H](NC(=O)COCCOc2ncc(N3C(=S)N(c4ccc(C#N)c(C(F)(F)F)c4F)C(=O)C3(C)C)cc2C(F)(F)F)C(C)(C)C)cc1` [Compound A269] the figure was 766 nM; with `Cc1ncsc1-c1ccc(CNC(=O)[C@@H]2C[C@@H](O)CN2C(=O)[C@@H](NC(=O)COCCOc2ccc(-c3ncc(N4C(=S)N(c5ccc(C#N)c(C(F)(F)F)c5F)C(=O)C4(C)C)cc3C(F)(F)F)cc2)C(C)(C)C)cc1` [Compound A92], 99.6 nM.
The result for `CC1(C)C(=O)N(c2ccc(C#N)c(C(F)(F)F)c2F)C(=S)N1c1cnc(-c2ccc(OC3CCN(C(=O)COc4ccc5c(c4)C(=O)N(C4CCC(=O)NC4=O)C5=O)CC3)c(F)c2)c(F)c1` (stereo not shown) [Compound A42] reads 122 nM; that for `CC(C)(C)[C@H](NC(=O)COCCCCOc1ccc(-c2ccc(N3C(=S)N(c4ccc(C#N)c(C(F)(F)F)c4F)C(=O)C3(C)C)cn2)cc1)C(=O)N1C[C@H](O)C[C@H]1c1nc(-c2cccnc2)c[nH]1` [Compound A214], 173 nM.
Consider `CC(C)(C)[C@H](NC(=O)COCCCCOc1ccc(-c2ncc(N3C(=S)N(c4ccc(C#N)c(C(F)(F)F)c4F)C(=O)C3(C)C)cc2F)c(C(F)(F)F)c1)C(=O)N1C[C@H](O)C[C@H]1c1nc(-c2cccs2)c[nH]1` [Compound A210], for which the DC50 came out at 834 nM.
With `CC1(C)C(=O)N(c2ccc(C#N)c(C(F)(F)F)c2F)C(=S)N1c1cnc(-c2ccc(OC3CCN(C(=O)COc4ccc5c(c4)C(=O)N(C4CCC(=O)NC4=O)C5=O)CC3)cc2C(F)(F)F)c(F)c1` (stereo not shown) [Compound A180] the figure was 840 nM; with `CC(C)(C)[C@H](NC(=O)COCCCCOc1ccc(-c2ccc(N3C(=S)N(c4ccc(C#N)c(C(F)(F)F)c4F)C(=O)C3(C)C)cn2)cc1C(F)(F)F)C(=O)N1C[C@H](O)C[C@H]1C(=O)NCc1ccc(C(N)=O)cc1` [Compound A121], 336 nM; with `CC1(C)C(=O)N(c2ccc(C#N)c(C(F)(F)F)c2F)C(=S)N1c1ccc(C2CC2C(=O)NCCCNC(=O)COc2cccc3c2C(=O)N(C2CCC(=O)NC2=O)C3=O)nc1` (stereo not shown) [Compound A25], over 2000 nM.
Compound `CC1(C)C(=O)N(c2ccc(C#N)c(C(F)(F)F)c2F)C(=S)N1c1ccc(CCCC(=O)NCCNC(=O)COc2cccc3c2C(=O)N(C2CCC(=O)NC2=O)C3=O)nc1` (stereo not shown) [Compound A6] gave a DC50 of over 2000 nM.
Compound `Cc1ncsc1-c1ccc(CNC(=O)[C@@H]2C[C@@H](O)CN2C(=O)[C@@H](NC(=O)Cc2ccc(C(=O)Nc3ccc(-c4ncc(N5C(=S)N(c6ccc(C#N)c(C(F)(F)F)c6F)C(=O)C5(C)C)cc4F)c(C(F)(F)F)c3)cc2)C(C)(C)C)cc1` [Compound A256] had a DC50 of 119 nM.
The result for `Cc1cc(C(C(=O)N2C[C@H](O)C[C@H]2C(=O)N[C@@H](CC(=O)N2CCC(Oc3ccc(-c4ncc(N5C(=S)N(c6ccc(C#N)c(C(F)(F)F)c6F)C(=O)C5(C)C)cc4F)c(C(F)(F)F)c3)CC2)c2ccc(-c3scnc3C)cc2)C(C)C)on1` (stereo partly shown) [Compound A183] reads 151 nM; that for `Cc1ncsc1-c1ccc(CNC(=O)[C@@H]2C[C@@H](O)CN2C(=O)[C@@H](NC(=O)COCC(F)(F)CCOc2ccc(-c3ncc(N4C(=S)N(c5ccc(C#N)c(C(F)(F)F)c5F)C(=O)C4(C)C)cc3F)cc2F)C(C)(C)C)cc1` [Compound A162], 186 nM; that for `Cc1ncsc1-c1ccc(CNC(=O)[C@@H]2C[C@@H](O)CN2C(=O)[C@@H](NC(=O)COCCCCN2CC=C(c3ccc(N4C(=S)N(c5ccc(C#N)c(C(F)(F)F)c5F)C(=O)C4(C)C)cn3)CC2)C(C)(C)C)cc1` [Compound A135], 1540 nM.
With `Cc1ncsc1-c1ccc(CNC(=O)[C@@H]2C[C@@H](O)CN2C(=O)[C@@H](NC(=O)COCCCCNc2ccc(-c3ccc(N4C(=S)N(c5ccc(C#N)c(C(F)(F)F)c5F)C(=O)C4(C)C)cn3)cc2)C(C)(C)C)cc1` [Compound A68] the figure was over 2000 nM.
The result for `CC1(C)C(=O)N(c2ccc(C#N)c(C(F)(F)F)c2F)C(=S)N1c1cnc(-c2ccc(OCC(=O)NCCNc3cccc4c3C(=O)N(C3CCC(=O)NC3=O)C4=O)c(F)c2)c(F)c1` (stereo not shown) [Compound A41] reads 59 nM.
In turn, `COc1c(C#N)ccc(N2C(=O)C(C)(C)N(c3cnc(-c4ccc(OC5CCN(C(=O)COc6cccc7c6C(=O)N(C6CCC(=O)NC6=O)C7=O)CC5)cc4F)c(F)c3)C2=S)c1F` (stereo not shown) [Compound A195] returned a DC50 of 404 nM.
